Test systems include HCT-15 colon; NCI-H460 lung; SK-MEL-28 melanoma; T-47D breast; HCC-2998 colon; COLO 205 colon; NCI-H522 lung; NCI/ADR-RES ovarian; BT-549 breast; ACHN renal.
Holding throughout (assay): NCI tumour cell line growth inhibition, 48 h

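96-well plates; 48 h exposure; 5 concentrations. Endpoints by linear interpolation between flanking doses. Not reached: highest tested concentration assigned. GI50: concentration for 50% inhibition of growth. TGI: concentration producing complete growth inhibition.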

As for `COc1ccc(C(=O)Nc2ncc(Cc3ccc(F)cc3)s2)cc1`, the GI50 is 0.0429 µM in the assay with HCT-15 colon; 0.0408 µM in the assay on NCI-H460 lung; 2.16 µM with SK-MEL-28 melanoma; 0.06 µM in the assay on T-47D breast; 0.163 µM in the assay on HCC-2998 colon; 0.0584 µM with COLO 205 colon. For the same molecule, the GI50 with NCI-H522 lung was 0.0874 µM; in the assay on NCI/ADR-RES ovarian it was 0.0511 µM; in the assay on BT-549 breast, 0.642 µM; with ACHN renal, 0.0664 µM. Moreover, the TGI with HCT-15 colon was over 100 µM; in the assay on NCI-H460 lung, over 32.6 µM; in the assay on SK-MEL-28 melanoma, over 100 µM; in the assay on T-47D breast, over 100 µM; in the assay with HCC-2998 colon, 2.49 µM; in the assay on NCI-H522 lung, over 100 µM. For the same molecule, the TGI was over 100 µM in the assay with NCI/ADR-RES ovarian, over 100 µM in the assay on BT-549 breast and over 95 µM in the assay on ACHN renal.

Consider `COc1cc(/C=C/C(=O)c2c(C)n([O-])c3cc(C)c(C)cc3[n+]2=O)cc(OC)c1OC`, for which the GI50 with HCT-15 colon is 10.3 µM; in the assay on NCI-H460 lung it was 10.9 µM; with SK-MEL-28 melanoma it was 19 µM; in the assay with T-47D breast, 20.5 µM; in the assay with HCC-2998 colon, 14.2 µM; in the assay on COLO 205 colon, 20.7 µM. Moreover, the GI50 with NCI-H522 lung is 10.9 µM; in the assay with NCI/ADR-RES ovarian, 23 µM; in the assay on BT-549 breast, 11.8 µM; in the assay with ACHN renal, 13.9 µM. Also, the TGI turned out to be 25.6 µM with HCT-15 colon; 26.3 µM in the assay with NCI-H460 lung; 46.7 µM in the assay with SK-MEL-28 melanoma; 73.7 µM with T-47D breast; 32.6 µM with HCC-2998 colon; 67.4 µM with COLO 205 colon. Moreover, the TGI worked out at 28.9 µM with NCI-H522 lung, 56.6 µM with NCI/ADR-RES ovarian, 30.8 µM in the assay on BT-549 breast and 27.9 µM in the assay with ACHN renal.

With `Cn1cc(-c2csc(-c3cn(CCN4CCOCC4)c4ccc(F)cc34)n2)c2cccnc21`, the GI50 in the assay with HCT-15 colon was 2.29 µM; in the assay with NCI-H460 lung, 3.39 µM; in the assay with SK-MEL-28 melanoma it was 3.01 µM; with T-47D breast, 1.52 µM; with HCC-2998 colon, 3.42 µM; in the assay with COLO 205 colon it was 2.08 µM. Moreover, the GI50 with NCI-H522 lung was 2.11 µM; in the assay on NCI/ADR-RES ovarian, 2.36 µM; in the assay with BT-549 breast, 2.18 µM; in the assay with ACHN renal, 2.82 µM. Moreover, the TGI with HCT-15 colon was 8.09 µM; with NCI-H460 lung, over 100 µM; with SK-MEL-28 melanoma, 12.3 µM; with T-47D breast, 4.73 µM; in the assay with HCC-2998 colon, 16.4 µM; in the assay on COLO 205 colon, 5.23 µM. In addition, the TGI was 6.63 µM in the assay with NCI-H522 lung, 8.15 µM in the assay with NCI/ADR-RES ovarian, 6.21 µM in the assay on BT-549 breast and 12.9 µM in the assay on ACHN renal.

Turning to `O=C1CC(c2ccccc2)Cc2nc3ccc(Cl)cc3cc21` (centres undefined), the GI50 is 0.511 µM with HCT-15 colon; 0.343 µM in the assay on NCI-H460 lung; 1.05 µM in the assay on SK-MEL-28 melanoma; 6.17 µM in the assay on T-47D breast; 2.39 µM in the assay with HCC-2998 colon; 0.344 µM in the assay with COLO 205 colon. The GI50 in the assay with NCI-H522 lung is 0.194 µM; in the assay on NCI/ADR-RES ovarian, 0.0586 µM; with BT-549 breast, 0.503 µM; with ACHN renal, 0.261 µM. For the same molecule, the TGI with HCT-15 colon was 66.6 µM; in the assay with NCI-H460 lung, over 34.5 µM; in the assay on SK-MEL-28 melanoma, over 100 µM; with T-47D breast, over 89 µM; in the assay on HCC-2998 colon, 20.2 µM; with COLO 205 colon, 3 µM. In addition, the TGI in the assay with NCI-H522 lung was 19 µM; with NCI/ADR-RES ovarian, 5.21 µM; in the assay on BT-549 breast it was 11.3 µM; in the assay with ACHN renal, over 100 µM.

For the molecule `COc1ccc2nc(-c3ccccc3)cc(Nc3ccc(/C(C)=N/O)cc3)c2c1`, the GI50 is 13.9 µM in the assay with HCT-15 colon; 2.8 µM in the assay on NCI-H460 lung; 3.13 µM with SK-MEL-28 melanoma; 6.18 µM with T-47D breast; 2.19 µM in the assay with HCC-2998 colon; 4.91 µM in the assay on COLO 205 colon. Besides, the GI50 was 14.9 µM with NCI-H522 lung, 2.75 µM with NCI/ADR-RES ovarian, 2.07 µM in the assay on BT-549 breast and 14.1 µM with ACHN renal. For the same molecule, the TGI with HCT-15 colon is over 63.9 µM; in the assay with NCI-H460 lung, over 23.3 µM; in the assay with SK-MEL-28 melanoma it was over 100 µM; with T-47D breast, over 100 µM; in the assay on HCC-2998 colon, 4.94 µM; with COLO 205 colon, over 100 µM. The TGI with NCI-H522 lung is over 24.6 µM; in the assay on NCI/ADR-RES ovarian, over 24.6 µM; in the assay on BT-549 breast, 4.76 µM; with ACHN renal it was 29.3 µM.

For the molecule `O=C1C=C(N2CC2)c2ccccc2C1=O`, the GI50 in the assay on HCT-15 colon is 1.85 µM; with NCI-H460 lung it was 1.71 µM; in the assay with SK-MEL-28 melanoma it was 1.77 µM; in the assay on T-47D breast, 1.88 µM; with HCC-2998 colon it was 1.76 µM; in the assay with COLO 205 colon it was 2.01 µM. Also, the GI50 in the assay on NCI-H522 lung is 1.42 µM; in the assay with NCI/ADR-RES ovarian it was 1.94 µM; with BT-549 breast, 1.4 µM; with ACHN renal it was 1.58 µM. For the same molecule, the TGI with HCT-15 colon was 3.79 µM; with NCI-H460 lung it was 3.89 µM; in the assay on SK-MEL-28 melanoma, 3.17 µM; with T-47D breast it was 4.17 µM; in the assay on HCC-2998 colon, 3.86 µM; in the assay on COLO 205 colon it was 3.49 µM. Further, the TGI was 2.93 µM in the assay on NCI-H522 lung, 5.83 µM in the assay with NCI/ADR-RES ovarian, 2.73 µM in the assay on BT-549 breast and 2.96 µM in the assay with ACHN renal.

As to `COc1cc(C/C=C/c2ccccc2)c(OC)cc1O`, the TGI in the assay on HCT-15 colon amounted to 37.2 µM; with NCI-H460 lung, 39.7 µM; in the assay on SK-MEL-28 melanoma, 35.3 µM; with T-47D breast it was 35.3 µM; in the assay with HCC-2998 colon, 37.4 µM; with COLO 205 colon, 45.5 µM. Moreover, the TGI with NCI-H522 lung was determined as 40.9 µM; in the assay with NCI/ADR-RES ovarian it was 72 µM; with BT-549 breast, 58.4 µM; in the assay on ACHN renal, 52.7 µM.

Regarding `COc1ccc(/C=C/c2nc(N3CCOCC3)c3cc(F)c(F)cc3n2)cc1OC`, the GI50 in the assay on HCT-15 colon was 3 µM; with NCI-H460 lung, 5.86 µM; in the assay on SK-MEL-28 melanoma, 5.53 µM; in the assay with T-47D breast, 1.49 µM; in the assay with HCC-2998 colon, 7.49 µM; in the assay on COLO 205 colon, 3.47 µM. Moreover, the GI50 in the assay on NCI-H522 lung is 6.86 µM; in the assay with NCI/ADR-RES ovarian, 4.09 µM; in the assay with BT-549 breast, 2.83 µM; in the assay on ACHN renal it was 4.35 µM. For the same molecule, the TGI is over 100 µM with HCT-15 colon; over 100 µM in the assay with NCI-H460 lung; over 100 µM in the assay with SK-MEL-28 melanoma; 9.72 µM in the assay on T-47D breast; over 100 µM with HCC-2998 colon; 20.7 µM in the assay with COLO 205 colon. For the same molecule, the TGI in the assay on NCI-H522 lung was over 100 µM; in the assay with NCI/ADR-RES ovarian it was over 100 µM; in the assay on BT-549 breast it was 19.8 µM; with ACHN renal, over 100 µM.

These data come from PubChem BioAssay (NCI).
